Publication PMC5218480 (PLoS ONE, 2017)

Test system: MV-4-11 cells
Assay: Gene expression microarray analysis (Affymetrix PrimeView) and GSEA
Type: cell-based, human
Design: RFU PODN (11730768_x_at) / Fold change /veh PODN (11730768_x_at) / RFU LINC00158 (11744669_a_at) / Fold change /veh LINC00158 (11744669_a_at) / RFU DUSP10 (11751237_a_at) / Fold change /veh DUSP10 (11751237_a_at) / RFU ID3 (11757404_x_at) / Fold change /veh ID3 (11757404_x_at) / RFU PLEKHG5 (11737974_s_at) / Fold change /veh PLEKHG5 (11737974_s_at) / RFU LRRC4B (11730491_at) / Fold change /veh LRRC4B (11730491_at) / RFU GIMAP4 (11747438_a_at) / Fold change /veh GIMAP4 (11747438_a_at) / RFU KRT8 (11758183_x_at) / Fold change /veh KRT8 (11758183_x_at) / RFU CNN1 (11734310_a_at) / Fold change /veh CNN1 (11734310_a_at) / RFU VPS37D (11726825_at) / Fold change /veh VPS37D (11726825_at) / RFU C10orf10 (11716522_x_at) / Fold change /veh C10orf10 (11716522_x_at) / RFU KIR2DL2 /// KIR2DL4 /// KIR2DL5A /// KIR2DL5B /// KIR2DS1 /// KIR2DS2 /// KIR2DS3 /// KIR2DS4 /// KIR3DL3 /// KIR3DL3 /// KIR3DS1 (11738374_at) / Fold change /veh KIR2DL2 /// KIR2DL4 /// KIR2DL5A /// KIR2DL5B /// KIR2DS1 /// KIR2DS2 /// KIR2DS3 /// KIR2DS4 /// KIR3DL3 /// KIR3DL3 /// KIR3DS1 (11738374_at) / RFU C1QL1 (11718748_at) / Fold change /veh C1QL1 (11718748_at) / RFU TMPRSS4 (11747572_a_at) / Fold change /veh TMPRSS4 (11747572_a_at) / RFU HAMP (11756126_x_at) / Fold change /veh HAMP (11756126_x_at) / RFU RNFT2 (11725882_a_at) / Fold change /veh RNFT2 (11725882_a_at) / RFU NR4A2 (11747474_a_at) / Fold change /veh NR4A2 (11747474_a_at) / RFU ABCC12 (11746883_a_at) / Fold change /veh ABCC12 (11746883_a_at) / RFU TMEM136 (11760407_x_at) / Fold change /veh TMEM136 (11760407_x_at) / RFU CLDN22 /// WWC2 (11732394_at) / Fold change /veh CLDN22 /// WWC2 (11732394_at) / RFU HLA-DPB1 (11760878_x_at) / Fold change /veh HLA-DPB1 (11760878_x_at) / RFU SPINT1 (11716480_a_at) / Fold change /veh SPINT1 (11716480_a_at) / RFU GAP43 (11754022_s_at) / Fold change /veh GAP43 (11754022_s_at) / RFU A4GNT (11735810_at) / Fold change /veh A4GNT (11735810_at) / RFU PRB3 (11715151_x_at) / Fold change /veh PRB3 (11715151_x_at) / RFU TUBB4B (11761932_at) / Fold change /veh TUBB4B (11761932_at) / RFU CAPN14 (11732068_a_at) / Fold change /veh CAPN14 (11732068_a_at) / RFU TMCC2 (11721928_a_at) / Fold change /veh TMCC2 (11721928_a_at) / RFU IRGQ (11745062_a_at) / Fold change /veh IRGQ (11745062_a_at) / RFU FAM174B (11720279_a_at) / Fold change /veh FAM174B (11720279_a_at) / RFU TMPRSS4 (11748680_a_at) / Fold change /veh TMPRSS4 (11748680_a_at) / RFU FAM212B (11763350_a_at) / Fold change /veh FAM212B (11763350_a_at) / RFU PLEKHG5 (11743358_a_at) / Fold change /veh PLEKHG5 (11743358_a_at) / RFU ZSCAN30 (11745921_a_at) / Fold change /veh ZSCAN30 (11745921_a_at) / RFU CMKLR1 (11741424_a_at) / Fold change /veh CMKLR1 (11741424_a_at) / RFU LOC101060620 /// MAPK8IP1 (11723275_at) / Fold change /veh LOC101060620 /// MAPK8IP1 (11723275_at) / RFU SPTSSB (11747773_x_at) / Fold change /veh SPTSSB (11747773_x_at) / RFU PRSS12 (11739890_at) / Fold change /veh PRSS12 (11739890_at) / RFU BIN1 (11741810_x_at) / Fold change /veh BIN1 (11741810_x_at) / RFU WNT11 (11732464_a_at) / Fold change /veh WNT11 (11732464_a_at) / RFU C10orf10 (11716521_a_at) / Fold change /veh C10orf10 (11716521_a_at) / RFU C5orf56 (11738089_at) / Fold change /veh C5orf56 (11738089_at) / RFU CYB561 (11721691_x_at) / Fold change /veh CYB561 (11721691_x_at) / RFU ANKRD19P (11752326_a_at) / Fold change /veh ANKRD19P (11752326_a_at) / RFU OR2T12 /// OR2T33 /// OR2T8 (11738714_s_at) / Fold change /veh OR2T12 /// OR2T33 /// OR2T8 (11738714_s_at) / RFU VCAN (11748164_a_at) / Fold change /veh VCAN (11748164_a_at) / RFU JSRP1 (11732532_at) / Fold change /veh JSRP1 (11732532_at) / RFU KRTAP10-11 (11738290_x_at) / Fold change /veh KRTAP10-11 (11738290_x_at) / RFU MYO3A (11730013_a_at) / Fold change /veh MYO3A (11730013_a_at) / RFU EBF3 (11725865_a_at) / Fold change /veh EBF3 (11725865_a_at) / RFU CAMK2N1 (11719241_x_at) / Fold change /veh CAMK2N1 (11719241_x_at) / RFU C5orf56 (11738088_a_at) / Fold change /veh C5orf56 (11738088_a_at) / RFU OLFML3 (11715873_a_at) / Fold change /veh OLFML3 (11715873_a_at) / RFU LOC100653217 /// NTM (11731650_a_at) / Fold change /veh LOC100653217 /// NTM (11731650_a_at) / RFU MAPK11 (11762145_a_at) / Fold change /veh MAPK11 (11762145_a_at) / RFU FIZ1 (11724087_x_at) / Fold change /veh FIZ1 (11724087_x_at) / RFU OASL (11726364_x_at) / Fold change /veh OASL (11726364_x_at) / RFU SOX15 (11748057_x_at) / Fold change /veh SOX15 (11748057_x_at) / RFU CD79A (11719716_a_at) / Fold change /veh CD79A (11719716_a_at) / RFU HIST1H1D (11736915_at) / Fold change /veh HIST1H1D (11736915_at) / RFU CASKIN2 (11723855_a_at) / Fold change /veh CASKIN2 (11723855_a_at) / RFU LOC730098 (11760151_x_at) / Fold change /veh LOC730098 (11760151_x_at) / RFU OR4N2 (11742367_at) / Fold change /veh OR4N2 (11742367_at) / RFU PRRT2 (11749266_a_at) / Fold change /veh PRRT2 (11749266_a_at) / RFU SNX32 (11753110_a_at) / Fold change /veh SNX32 (11753110_a_at) / RFU CDHR5 (11726645_a_at) / Fold change /veh CDHR5 (11726645_a_at) / RFU RCAN1 (11760418_a_at) / Fold change /veh RCAN1 (11760418_a_at) / RFU FAM167A (11723789_a_at) / Fold change /veh FAM167A (11723789_a_at) / RFU FAM26E (11764081_at) / Fold change /veh FAM26E (11764081_at) / RFU ISYNA1 (11749810_s_at) / Fold change /veh ISYNA1 (11749810_s_at) / RFU ACY1 (11761880_at) / Fold change /veh ACY1 (11761880_at) / RFU 11764098_at / Fold change /veh 11764098_at / RFU SAMD14 (11745864_x_at) / Fold change /veh SAMD14 (11745864_x_at) / RFU NPB (11741838_a_at) / Fold change /veh NPB (11741838_a_at) / RFU TMPRSS6 (11731388_a_at) / Fold change /veh TMPRSS6 (11731388_a_at) / RFU KRTAP10-2 (11738614_at) / Fold change /veh KRTAP10-2 (11738614_at) / RFU ARHGAP8 /// PRR5-ARHGAP8 (11727945_x_at) / Fold change /veh ARHGAP8 /// PRR5-ARHGAP8 (11727945_x_at) / RFU KRTAP5-7 /// NADSYN1 (11734609_at) / Fold change /veh KRTAP5-7 /// NADSYN1 (11734609_at) / RFU RASL12 (11751679_a_at) / Fold change /veh RASL12 (11751679_a_at) / RFU CDKN2B (11736163_a_at) / Fold change /veh CDKN2B (11736163_a_at) / RFU PRF1 (11729649_at) / Fold change /veh PRF1 (11729649_at) / RFU, ZNF638 /// ZNF638-IT1 / Fold change vs veh, ZNF638 /// ZNF638-IT1 / RFU, PANK3 / Fold change vs veh, PANK3 / RFU, SH3YL1 / Fold change vs veh, SH3YL1 / RFU, ZEB2 / Fold change vs veh, ZEB2 / RFU, NRIP1 / Fold change vs veh, NRIP1 / RFU, PTTG1IP / Fold change vs veh, PTTG1IP / RFU, CAPN2 / Fold change vs veh, CAPN2 / RFU, MED14 / Fold change vs veh, MED14 / RFU, SNORA58 / Fold change vs veh, SNORA58 / RFU, C1orf63 / Fold change vs veh, C1orf63 / RFU, LRRFIP1 / Fold change vs veh, LRRFIP1 / RFU, NDUFAF7 / Fold change vs veh, NDUFAF7 / RFU, SLC12A2 / Fold change vs veh, SLC12A2 / RFU, IBTK / Fold change vs veh, IBTK / RFU, ESF1 / Fold change vs veh, ESF1 / Fold change vs veh, TMEM50B / RFU, TAOK1 / Fold change vs veh, TAOK1 / RFU, ACBD3 / Fold change vs veh, ACBD3 / RFU, TMA16 / Fold change vs veh, TMA16 / RFU, RWDD3 / Fold change vs veh, RWDD3 / RFU, BCAT1 / Fold change vs veh, BCAT1 / RFU, EDEM3 / Fold change vs veh, EDEM3 / RFU, TMEM33 / Fold change vs veh, TMEM33 / RFU, WDR75 / Fold change vs veh, WDR75 / RFU, AHCTF1 / Fold change vs veh, AHCTF1 / RFU, TFRC / Fold change vs veh, TFRC / RFU, ZDHHC17 / Fold change vs veh, ZDHHC17 / RFU, NOM1 / Fold change vs veh, NOM1 / RFU, ARL8B / Fold change vs veh, ARL8B / RFU, ZBTB11 / Fold change vs veh, ZBTB11 / RFU, TAMM41 / Fold change vs veh, TAMM41 / RFU, KIAA1704 /// LOC100996395 / Fold change vs veh, KIAA1704 /// LOC100996395 / RFU, ING1 / Fold change vs veh, ING1 / RFU, TRMT61B / Fold change vs veh, TRMT61B / RFU, FUBP3 / Fold change vs veh, FUBP3 / RFU, TP53 / Fold change vs veh, TP53 / RFU, TNKS2 / Fold change vs veh, TNKS2 / RFU, ZFP14 / Fold change vs veh, ZFP14 / RFU, ACTR2 / Fold change vs veh, ACTR2 / RFU, PPP3R1 / Fold change vs veh, PPP3R1 / RFU, PIK3R1 / Fold change vs veh, PIK3R1 / RFU, HNRNPA1 / Fold change vs veh, HNRNPA1 / RFU, RNF170 / Fold change vs veh, RNF170 / RFU, ZNF28 / Fold change vs veh, ZNF28 / RFU, RNGTT / Fold change vs veh, RNGTT / RFU, OGT / Fold change vs veh, OGT / RFU, BRD1 / Fold change vs veh, BRD1 / RFU, MARS / Fold change vs veh, MARS / RFU, ZNF655 / Fold change vs veh, ZNF655 / RFU, FAHD1 / Fold change vs veh, FAHD1 / RFU, BDP1 / Fold change vs veh, BDP1 / RFU, LRRCC1 / Fold change vs veh, LRRCC1 / RFU, ARID1A / Fold change vs veh, ARID1A / RFU, ZNF146 / Fold change vs veh, ZNF146 / RFU, ZNF330 / Fold change vs veh, ZNF330 / RFU, GPN3 / Fold change vs veh, GPN3 / RFU, C9orf123 / Fold change vs veh, C9orf123 / RFU, N4BP2L2 / Fold change vs veh, N4BP2L2 / RFU, ARFIP1 / Fold change vs veh, ARFIP1 / RFU, FAM179B / Fold change vs veh, FAM179B / RFU, BCL10 / Fold change vs veh, BCL10 / RFU, UHRF1BP1L / Fold change vs veh, UHRF1BP1L / RFU, BET1 / Fold change vs veh, BET1 / RFU, CNOT2 / Fold change vs veh, CNOT2 / RFU, ZNF268 / Fold change vs veh, ZNF268 / Fold change vs veh, ZNF507 / RFU, DGCR2 / Fold change vs veh, DGCR2 / RFU, WDSUB1 / Fold change vs veh, WDSUB1 / Fold change vs veh, HSP90B1 /// MIR3652 / RFU, ADSS / Fold change vs veh, ADSS / RFU, GK / Fold change vs veh, GK / RFU, ZNF148 / Fold change vs veh, ZNF148 / RFU, TAF9 / Fold change vs veh, TAF9 / RFU, SLC1A5 / Fold change vs veh, SLC1A5 / RFU, SLMO2 / Fold change vs veh, SLMO2 / RFU, ABCC4 / Fold change vs veh, ABCC4 / RFU, LOC101060439 /// RAP1B / Fold change vs veh, LOC101060439 /// RAP1B / RFU, RFX7 / Fold change vs veh, RFX7 / RFU, GTPBP10 / Fold change vs veh, GTPBP10 / RFU, CNEP1R1 / Fold change vs veh, CNEP1R1 / RFU, BIVM-ERCC5 /// ERCC5 / Fold change vs veh, BIVM-ERCC5 /// ERCC5 / RFU, ILF3 / Fold change vs veh, ILF3 / RFU 11762660_at / Fold change /veh 11762660_at / RFU VCAN (11757783_s_at) / Fold change /veh VCAN (11757783_s_at) / RFU DDX43 (11728927_at) / Fold change /veh DDX43 (11728927_at) / RFU KRT8 (11758188_x_at) / Fold change /veh KRT8 (11758188_x_at) / RFU NKD1 (11759106_at) / Fold change /veh NKD1 (11759106_at) / RFU SRD5A1 (11742802_a_at) / Fold change /veh SRD5A1 (11742802_a_at) / RFU TPSAB1 /// TPSB2 (11721975_s_at) / Fold change /veh TPSAB1 /// TPSB2 (11721975_s_at) / RFU GSTM3 (11746129_a_at) / Fold change /veh GSTM3 (11746129_a_at) / RFU IL23R (11737362_x_at) / Fold change /veh IL23R (11737362_x_at) / RFU TMEM51 (11727254_a_at) / Fold change /veh TMEM51 (11727254_a_at) / RFU PIWIL2 (11732686_x_at) / Fold change /veh PIWIL2 (11732686_x_at) / RFU ORM1 (11744905_x_at) / Fold change /veh ORM1 (11744905_x_at) / RFU CCDC152 (11743942_at) / Fold change /veh CCDC152 (11743942_at) / RFU ECM1 (11717891_a_at) / Fold change /veh ECM1 (11717891_a_at) / RFU IL23R (11748794_a_at) / Fold change /veh IL23R (11748794_a_at) / RFU TNFAIP8L3 (11732012_x_at) / Fold change /veh TNFAIP8L3 (11732012_x_at) / RFU MBOAT4 (11741988_at) / Fold change /veh MBOAT4 (11741988_at) / RFU 11764193_at / Fold change /veh 11764193_at / RFU TMEM53 (11763286_at) / Fold change /veh TMEM53 (11763286_at) / RFU MAGEB2 (11727129_at) / Fold change /veh MAGEB2 (11727129_at) / RFU TMEM200A (11744735_a_at) / Fold change /veh TMEM200A (11744735_a_at) / RFU CCDC152 (11751479_a_at) / Fold change /veh CCDC152 (11751479_a_at) / RFU FAM211A (11726209_a_at) / Fold change /veh FAM211A (11726209_a_at) / RFU RGS16 (11746705_a_at) / Fold change /veh RGS16 (11746705_a_at) / RFU VCAN (11755009_s_at) / Fold change /veh VCAN (11755009_s_at) / RFU RHOB (11743442_s_at) / Fold change /veh RHOB (11743442_s_at) / RFU RGS16 (11720943_a_at) / Fold change /veh RGS16 (11720943_a_at) / RFU RGS16 (11720944_at) / Fold change /veh RGS16 (11720944_at) / RFU, VPS4B / Fold change vs veh, VPS4B / RFU, CREB1 / Fold change vs veh, CREB1 / RFU, DNAJC13 / Fold change vs veh, DNAJC13 / RFU, GNAQ / Fold change vs veh, GNAQ / RFU, CDK5R1 / Fold change vs veh, CDK5R1 / RFU, ZRANB3 / Fold change vs veh, ZRANB3 / RFU, CUL4A / Fold change vs veh, CUL4A / RFU, CCNY / Fold change vs veh, CCNY / RFU, UFL1 / Fold change vs veh, UFL1 / RFU, COG3 / Fold change vs veh, COG3 / RFU, DIAPH2 / Fold change vs veh, DIAPH2 / RFU, SKA2 / Fold change vs veh, SKA2 / RFU, AFF3 / Fold change vs veh, AFF3 / RFU, LMF1 / Fold change vs veh, LMF1 / RFU, IPO11 / Fold change vs veh, IPO11 / RFU, DFFB / Fold change vs veh, DFFB / RFU, FOXP1 / Fold change vs veh, FOXP1 / RFU, CARD8 / Fold change vs veh, CARD8 / RFU, STRN3 / Fold change vs veh, STRN3 / RFU, ADK / Fold change vs veh, ADK / RFU, RASSF2 / Fold change vs veh, RASSF2 / RFU, WIPF1 / Fold change vs veh, WIPF1 / RFU, LARP1B / Fold change vs veh, LARP1B / RFU, RASA1 / Fold change vs veh, RASA1 / RFU, RB1 / Fold change vs veh, RB1 / RFU, PPFIA1 / Fold change vs veh, PPFIA1 / RFU, MAT2A / Fold change vs veh, MAT2A / RFU, CCT5 / Fold change vs veh, CCT5 / RFU, WDR92 / Fold change vs veh, WDR92 / RFU, CUX1 / Fold change vs veh, CUX1 / RFU, TTC7A / Fold change vs veh, TTC7A / RFU, TMEM135 / Fold change vs veh, TMEM135 / RFU, DEPTOR / Fold change vs veh, DEPTOR / RFU, CPM / Fold change vs veh, CPM / RFU, DNAJB6 / Fold change vs veh, DNAJB6 / RFU, CACNA2D3 / Fold change vs veh, CACNA2D3 / RFU, DTX4 / Fold change vs veh, DTX4 / RFU, TFCP2 / Fold change vs veh, TFCP2 / RFU, GMCL1 /// GMCL1P1 / Fold change vs veh, GMCL1 /// GMCL1P1 / RFU, AEBP2 / Fold change vs veh, AEBP2 / RFU, SNHG1 /// SNORD22 /// SNORD25 /// SNORD26 /// SNORD27 /// SNORD28 /// SNORD29 /// SNORD31 / Fold change vs veh, SNHG1 /// SNORD22 /// SNORD25 /// SNORD26 /// SNORD27 /// SNORD28 /// SNORD29 /// SNORD31 / Fold change (Aza/veh), C12orf56 (ProbeSet 11735607_a_at) / Fold change (ACY-1035/veh), C12orf56 (ProbeSet 11735607_a_at) / Fold change (Aza/veh), FGFR1OP (ProbeSet 11751329_s_at) / Fold change (ACY-1035/veh), FGFR1OP (ProbeSet 11751329_s_at) / Fold change (Aza/veh), VPS36 (ProbeSet 11739960_a_at) / Fold change (ACY-1035/veh), VPS36 (ProbeSet 11739960_a_at) / RFU SYPL1 (11715823_x_at) / Fold change /veh SYPL1 (11715823_x_at) / RFU IGFBP7 (11715501_s_at) / Fold change /veh IGFBP7 (11715501_s_at) / RFU REEP3 (11722064_at) / Fold change /veh REEP3 (11722064_at) / RFU IGLL1 (11728026_x_at) / Fold change /veh IGLL1 (11728026_x_at): dose or concentration left out as unconfirmed
Details: MV-4-11 cells, 48 hours

SMILES: Nc1ncn([C@@H]2O[C@H](CO)[C@@H](O)[C@H]2O)c(=O)n1 [azacitidine]
- Fold change /veh IGFBP7 (11715501_s_at): 0.50
